Measured values as given in US9556237B2 (priority 2012, dated 2017).

Tests used:
[1] = test system: EBOV-eGFP; assay type: cell-based, Zaire ebolavirus
[2] = test system: RVFV-MP12; assay type: cell-based, Rift Valley fever virus
[3] = test system: Vero E6 cells

Compound | inhibition of RVFV-MP12 (plaque reduction), in words [2] | further results
SGSWNFFDWFSGLMSWFGGPL [RVFV-10] |  | inhibition of EBOV (GFP signal) [1]: strongly inhibit
WGCGCFNVNPSCLFVHTYL [RVFV-2] | Only RVFV-5 demonstrated any inhibition | 
YWTGSISPKCLSSRRCHLV [RVFV-1] | Only RVFV-5 demonstrated any inhibition | 
CSCC[C@H](NC(=O)[C@H](CC(C)C)NC(=O)CNC(=O)[C@H](CO)NC(=O)[C@H](Cc1ccccc1)NC(=O)[C@H](Cc1c[nH]c2ccccc12)NC(=O)[C@H](CC(=O)O)NC(=O)[C@H](Cc1ccccc1)NC(=O)[C@H](Cc1ccccc1)NC(=O)[C@H](CC(N)=O)NC(=O)[C@@H](N)Cc1c[nH]c2ccccc12)C(=O)N[C@@H](CO)C(=O)N[C@@H](Cc1c[nH]c2ccccc12)C(=O)N[C@@H](Cc1ccccc1)C(=O)NCC(=O)NCC(=O)N1CCC[C@H]1C(=O)N[C@@H](CC(C)C)C(=O)N[C@@H](CCCCN)C(=O)O [RVFV-6, WNFFDWFSGLMSWFGGPLK] |  | impact on cell proliferation (MTT assay) [3]: little negative impact on cell proliferation
FVGAAVSCDAAFLNLTGCY [RVFV-4] | Only RVFV-5 demonstrated any inhibition | 
LGASSSRFTNWGSVSLSLD [RVFV-3] | Only RVFV-5 demonstrated any inhibition | 
